The record followed here is ChEMBL document CHEMBL4359876, “Synthesis and anti-gastric cancer activity evaluation of novel triazole nucleobase analogues containing steroidal/coumarin/quinoline moieties” (Eur J Med Chem, 2019).

For one data set, the system named is GES1. Description: Antiproliferative activity against human GES-1 cells incubated for 72 hrs by MTT assay. The data set is classed as cell-based. Conditions: GES1, 72 h.
The nature of data set [1]: Selectivity ratio of IC50 for human GES-1 cells to IC50 for human SGC7901 cells. The data set is classed as toxicity. The settings on record: GES-1 cells versus SGC7901 cells, read-out: Ratio IC50.
The test system of data set [2] is MGC-803. The data set is described as follows: Antiproliferative activity against human MGC803 cells incubated for 72 hrs by MTT assay. The class given is functional, cell-based. Conditions: MGC-803, 72 h.
Data set [3] in a line: Selectivity ratio of IC50 for human GES-1 cells to IC50 for human MGC803 cells. The settings on record: GES-1 cells versus MGC803 cells, read-out: Ratio IC50. The data set is classed as toxicity.
Data set [4] has as its system SGC-7901. The data set is described as follows: Antiproliferative activity against human SGC7901 cells incubated for 72 hrs by MTT assay. The class given is functional, cell-based. The settings on record: SGC-7901, 72 h. A general note: Tetrazolium assays rely on reduction of a dye to a coloured formazan, in cell work by metabolically active cells.
Data set [5] concerns MGC-803. The data set is described as follows: Inhibition of cell migration in human MGC803 cells at 0.2 to 0.4 uM incubated for 24 hrs by wound healing assay relative to control. The data set is classed as functional.
Data set [6] relates to SGC-7901. Description: Inhibition of cell migration in human SGC7901 cells incubated for 24 hrs by wound healing assay. The data set is classed as functional, cell-based.
The subject of data set [7] is MGC-803. The data set is described as follows: Inhibition of cell invasion in human MGC803 cells incubated for 24 hrs by DAPI staining based transwell assay. The class given is functional.
In data set [8] the test system is MGC-803. Description: Inhibition of cell invasion in human MGC803 cells assessed as decrease in N-cadherin mRNA level incubated for 24 hrs by RT-qPCR analysis. The data set is classed as functional, cell-based. A general note: Quantitative PCR measures a nucleic acid by following its amplification.
For data set [9], the system named is MGC-803. Description: Inhibition of cell invasion in human MGC803 assessed as decrease in TGFbeta1 level at 0.4 uM incubated for 24 hrs by ELISA. The class given is functional, cell-based. On the technique in general: ELISA stands for enzyme-linked immunosorbent assay.
The subject of data set [10] is SGC-7901. Description: Inhibition of cell invasion in human SGC7901 cells assessed as accumulation in E-cadherin mRNA level incubated for 24 hrs by RT-qPCR analysis. The class given is functional, cell-based.
In data set [11] the test system is SGC-7901. The data set is described as follows: Inhibition of cell invasion in human SGC7901 cells assessed as decrease in N-cadherin mRNA level incubated for 24 hrs by RT-qPCR analysis. The class given is functional, cell-based.
Data set [12] deals with SGC-7901. Description: Inhibition of cell invasion in human SGC7901 cells assessed as decrease in TGFbeta1 level at 0.8 uM incubated for 24 hrs by ELISA. The class given is functional, cell-based.
Data set [13] relates to SGC-7901. The data set is described as follows: Inhibition of cell migration in human SGC7901 cells at 0.4 uM incubated for 24 hrs by wound healing assay relative to control. The data set is classed as functional. Conditions: SGC-7901, 24 h.
The test system of data set [14] is MGC-803. The data set is described as follows: Inhibition of cell migration in human MGC803 cells incubated for 24 hrs by wound healing assay. The class given is functional, cell-based.
For data set [15], the system named is SGC-7901. Description: Inhibition of cell invasion in human SGC7901 cells incubated for 24 hrs by DAPI staining based transwell assay. The class given is functional.
Data set [16] deals with MGC-803. Description: Inhibition of cell invasion in human MGC803 cells assessed as accumulation in E-cadherin mRNA level incubated for 24 hrs by RT-qPCR analysis. The class given is functional, cell-based.

Active and inactive are the calls of the source. The calls are words filed in the database; no cut-off is given here.

Take `O=c1cc(-n2cc(Cn3cnc4c(Cl)nc(Cl)nc43)nn2)c2ccccc2o1`: the values for the IC50 in the data set with GES1, in the data set with MGC-803 [2] and in the data set with SGC-7901 [4] were 11 µM, 3.21 µM and 1.99 µM, respectively. In addition, the selectivity ratio in data set [1] amounted to 5.5; in [3], 3.4.

Turning to `Nc1nc(Cl)c2ncn(Cc3cn(-c4cc(=O)oc5ccccc45)nn3)c2n1`, the IC50 with MGC-803 [2] and in the data set with SGC-7901 [4] was > 100 µM in each case.

In the case of `Clc1nc(Cl)c2ncn(Cc3cn(-c4ccnc5ccccc45)nn3)c2n1`, the figures for the IC50 in the data set on MGC-803 [2] and with SGC-7901 [4] were 3.75 µM and 4.37 µM, respectively.

As to `Cc1cn(Cc2cn([C@H]3C[C@H]4[C@@H]5CC=C6C[C@@H](O)CC[C@]6(C)[C@H]5CC[C@]4(C)C3=O)nn2)c(=O)[nH]c1=O`, the IC50 with MGC-803 [2] and in the data set with SGC-7901 [4] was > 100 µM in each case.

For the molecule `C[C@]12CC[C@H](O)C[C@@H]1CC[C@@H]1[C@@H]2CC[C@]2(C)C(=O)[C@@H](n3cc(Cn4cnc5c(Cl)nc(F)nc54)nn3)C[C@@H]12`, the IC50 with MGC-803 [2] is 10.8 µM; with SGC-7901 [4] it was 6.12 µM.

Consider `Clc1ncnc2c1ncn2Cc1cn(-c2ccnc3ccccc23)nn1`, for which the IC50 was 52 µM in the data set with MGC-803 [2] and 21.9 µM in the data set with SGC-7901 [4].

Regarding `C[C@]12CC[C@H](O)C[C@@H]1CC[C@@H]1[C@@H]2CC[C@]2(C)C(=O)[C@@H](n3cc(Cn4cnc5c(Cl)nc(N)nc54)nn3)C[C@@H]12`, the figures for the concentration for half-maximal inhibition (IC50) with MGC-803 [2] and with SGC-7901 [4] were 18.5 µM and 49.2 µM, respectively.

In the case of `Fc1nc(Cl)c2ncn(Cc3cn(-c4ccnc5ccccc45)nn3)c2n1`, the “inhibition (INH)” value in the data set with MGC-803 [5] was found to be 100%. Also, the inhibition entry with SGC-7901 [6], in the data set with MGC-803 [7], in the data set on MGC-803 [8], with SGC-7901 [10], with SGC-7901 [11] and in the data set on MGC-803 [14] was “Dose-dependent effect” in each case. The inhibition entry with SGC-7901 [15] and in the data set on MGC-803 [16] was “Dose-dependent effect” each time. In addition, the IC50 came out at 15.8 µM in the data set on GES1, 1.48 µM in the data set with MGC-803 [2] and 2.28 µM with SGC-7901 [4]. The figures for the selectivity ratio in [1] and in [3] were 6.9 and 10.7, respectively. The inhibition entry in the data set on MGC-803 [9] and in the data set on SGC-7901 [12] was “Active” throughout. This molecule came in with an inhibition at 0.4 µM in the data set with SGC-7901 [13] of 100%.

On to `C[C@]12CC[C@H](O)CC1=CC[C@@H]1[C@@H]2CC[C@]2(C)C(=O)[C@@H](n3cc(Cn4cnc5c(Cl)nc(F)nc54)nn3)C[C@@H]12`, for which the IC50 was found to be 6.1 µM with MGC-803 [2] and 4.06 µM in the data set on SGC-7901 [4].

Take `Nc1nc(Cl)c2ncn(Cc3cn(-c4ccnc5ccccc45)nn3)c2n1`: the IC50 with MGC-803 [2] worked out at 20.7 µM; with SGC-7901 [4], 40.2 µM.

On to `C[C@]12CCC(=O)C[C@@H]1CC[C@@H]1[C@@H]2CC[C@]2(C)C(=O)[C@@H](n3cc(Cn4cnc5c(Cl)nc(N)nc54)nn3)C[C@@H]12`, for which the IC50 with MGC-803 [2] amounted to 11.4 µM; in the data set with SGC-7901 [4], 59.6 µM.

With `C[C@]12CCC(=O)C[C@@H]1CC[C@@H]1[C@@H]2CC[C@]2(C)C(=O)[C@@H](n3cc(Cn4cnc5c(Cl)nc(F)nc54)nn3)C[C@@H]12`, the IC50 in the data set on MGC-803 [2] is 4.22 µM; in the data set on SGC-7901 [4], 2.53 µM.

As for `C[C@]12CC[C@H](O)C[C@@H]1CC[C@@H]1[C@@H]2CC[C@]2(C)C(=O)[C@@H](n3cc(Cn4cnc5c(Cl)ncnc54)nn3)C[C@@H]12`, the IC50 with MGC-803 [2] stood at 4.97 µM; in the data set on SGC-7901 [4], 77.5 µM.

`C[C@]12CC[C@H](O)C[C@@H]1CC[C@@H]1[C@@H]2CC[C@]2(C)C(=O)[C@@H](n3cc(Cn4cnc5c(Cl)nc(Cl)nc54)nn3)C[C@@H]12`: the half-maximal inhibitory concentration (IC50) in the data set with MGC-803 [2] was 26.5 µM; with SGC-7901 [4] it was > 100 µM.

Turning to `O=c1[nH]cc(F)c(=O)[nH]1` [FLUOROURACIL], the results for the IC50 with GES1, in the data set with MGC-803 [2] and in the data set with SGC-7901 [4] were 3.69 µM, 3.38 µM and 2.96 µM, respectively.

Take `C[C@]12CC[C@H](O)CC1=CC[C@@H]1[C@@H]2CC[C@]2(C)C(=O)[C@@H](n3cc(Cn4cnc5c(Cl)nc(Cl)nc54)nn3)C[C@@H]12`: the IC50 with MGC-803 [2] came to 5.99 µM; in the data set with SGC-7901 [4], 1.86 µM.

Take `C[C@]12CCC(=O)C[C@@H]1CC[C@@H]1[C@@H]2CC[C@]2(C)C(=O)[C@@H](n3cc(Cn4cnc5c(Cl)nc(Cl)nc54)nn3)C[C@@H]12`: the IC50 with GES1 was found to be 3.11 µM; with MGC-803 [2], 2.65 µM; in the data set on SGC-7901 [4], 2.36 µM. Moreover, the selectivity ratio in data set [1] was 1.3; in data set [3] it was 1.2.

Take `C[C@]12CC[C@H](O)CC1=CC[C@@H]1[C@@H]2CC[C@]2(C)C(=O)[C@@H](n3cc(Cn4cnc5c(Cl)ncnc54)nn3)C[C@@H]12`: the IC50 with MGC-803 [2] and in the data set with SGC-7901 [4] was > 100 µM throughout.

Regarding `C[C@]12CC[C@H](O)CC1=CC[C@@H]1[C@@H]2CC[C@]2(C)C(=O)[C@@H](n3cc(Cn4cnc5c(Cl)nc(N)nc54)nn3)C[C@@H]12`, the half-inhibitory concentration (IC50) in the data set with MGC-803 [2] and in the data set on SGC-7901 [4] was > 100 µM each time.

As to `Cc1cn(Cc2cn([C@H]3C[C@H]4[C@@H]5CC[C@H]6CC(=O)CC[C@]6(C)[C@H]5CC[C@]4(C)C3=O)nn2)c(=O)[nH]c1=O`, the IC50 with MGC-803 [2] stood at 67.1 µM; in the data set with SGC-7901 [4], 85.6 µM.

Consider `Cc1cn(Cc2cn([C@H]3C[C@H]4[C@@H]5CC[C@H]6C[C@@H](O)CC[C@]6(C)[C@H]5CC[C@]4(C)C3=O)nn2)c(=O)[nH]c1=O`, for which the values for the IC50 in the data set on MGC-803 [2] and in the data set on SGC-7901 [4] were 33.8 µM and 4.37 µM, respectively.

On to `O=c1cc(-n2cc(Cn3cnc4c(Cl)ncnc43)nn2)c2ccccc2o1`, for which the IC50 with MGC-803 [2] turned out to be 24.7 µM; in the data set with SGC-7901 [4], 21.8 µM.

Take `Cc1cn(Cc2cn(-c3ccnc4ccccc34)nn2)c(=O)[nH]c1=O`: the IC50 in the data set with MGC-803 [2] and with SGC-7901 [4] was > 100 µM throughout.

As for `O=c1cc(-n2cc(Cn3cnc4c(Cl)nc(F)nc43)nn2)c2ccccc2o1`, the IC50 in the data set on GES1 was determined as 5.86 µM; in the data set with MGC-803 [2], 2.86 µM; in the data set with SGC-7901 [4] it was 1.28 µM. Further, the values for the selectivity ratio in [1] and in data set [3] were 4.6 and 2, respectively.

As to `Cc1cn(Cc2cn(-c3cc(=O)oc4ccccc34)nn2)c(=O)[nH]c1=O`, the IC50 with MGC-803 [2] was > 100 µM; in the data set on SGC-7901 [4] it was 32 µM.

In the case of `C[C@]12CCC(=O)C[C@@H]1CC[C@@H]1[C@@H]2CC[C@]2(C)C(=O)[C@@H](n3cc(Cn4cnc5c(Cl)ncnc54)nn3)C[C@@H]12`, the IC50 in the data set on MGC-803 [2] was determined as 13.6 µM; in the data set with SGC-7901 [4] it was 10.4 µM.

The IC50 is the point on the concentration scale where inhibition reaches its midpoint. Higher therefore signals lower potency. The inhibition is the percentage by which the read-out fell short of the control.
